Assay results taken from patent US20060148030A1, “Nuclear receptor err y 3” (FUJISAWA PHARMACEUTICAL CO., LTD, priority 2002, published 2006).

How the values were obtained:
[1] = tested on: ERRγ2; conditions: stated as known property; cited from earlier work
[2] = biological target: T1, VDR (Rattus norvegicus, UniProt P13053); experiment: Reporter gene assay, ERRγ3 coexisted with VDR, pGVP2-VDRE in CV-1 cells; type: cell-based; conditions: 5×10^−8 M calcitriol, FIG. 23
T1 construct: expressed in transfected cells; host or cells: CV-1 (African green monkey kidney)
T1 sequence (P13053 1-423): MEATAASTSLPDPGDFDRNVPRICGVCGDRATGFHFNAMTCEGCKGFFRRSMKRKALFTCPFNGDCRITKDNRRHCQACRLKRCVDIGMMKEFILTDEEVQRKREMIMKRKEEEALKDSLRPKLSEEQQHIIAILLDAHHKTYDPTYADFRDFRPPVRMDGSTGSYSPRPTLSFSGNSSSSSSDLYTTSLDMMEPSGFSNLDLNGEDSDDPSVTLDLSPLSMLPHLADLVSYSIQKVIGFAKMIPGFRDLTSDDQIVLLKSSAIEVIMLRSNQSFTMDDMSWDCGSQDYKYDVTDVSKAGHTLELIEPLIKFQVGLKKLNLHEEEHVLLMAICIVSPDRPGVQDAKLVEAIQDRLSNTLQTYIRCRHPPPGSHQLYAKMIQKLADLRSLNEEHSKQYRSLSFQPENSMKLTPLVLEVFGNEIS
T1 sequence (P19793 1-462 partner): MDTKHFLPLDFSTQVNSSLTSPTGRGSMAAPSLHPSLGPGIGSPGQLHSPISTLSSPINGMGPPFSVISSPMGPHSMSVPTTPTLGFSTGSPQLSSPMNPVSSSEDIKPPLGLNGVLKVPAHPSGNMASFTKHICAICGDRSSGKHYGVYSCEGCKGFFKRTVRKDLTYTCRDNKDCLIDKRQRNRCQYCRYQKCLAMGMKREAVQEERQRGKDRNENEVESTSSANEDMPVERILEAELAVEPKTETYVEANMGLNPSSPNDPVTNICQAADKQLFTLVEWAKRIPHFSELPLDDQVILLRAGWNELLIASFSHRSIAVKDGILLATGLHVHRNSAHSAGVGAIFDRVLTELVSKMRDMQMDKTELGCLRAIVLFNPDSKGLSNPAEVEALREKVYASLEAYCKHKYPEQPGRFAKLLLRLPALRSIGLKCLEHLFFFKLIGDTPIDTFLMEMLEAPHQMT
Protocol: Transfection was performed as follows: CV-1 cells were resuspended in DMEM supplemented with 10% fetal bovine serum, 2000 U/l of penicillin G, and 100 mg/l of streptomycin to a concentration of 2×10^5 cells/2.5 ml. This was then seeded to a 6-well plate at 2.5 ml per well, and incubated for 18-24 hours in a CO2 incubator at 37° C. and 5% CO2. 1 μg of each of the expression plasmids for the transcription factors, the luciferase reporter plasmid, and another luciferase reporter plasmid used for normalization of the measured values (pRL-TK), were dissolved in Opti-MEM (Gibco BRL), to a total of 150 μl. 7 μl of the transfection reagent LipofectAMINE 2000 (Gibco BRL) was diluted in 143 μl of Opti-MEM, and this was added to the mixture drop by drop while stirring. The mixture was incubated for 20 minutes. […] Luciferase activity was measured using the Dual-Luciferase™ Reporter Assay System (Promega). […] The protocol for measurement was as follows: 50 μl of Luciferase Assay Reagent II was added to each well, stirred for 0.3 seconds, and measured for one second. 50 μl of Stop&Glo™ Reagent was then added, stirred for 0.3 seconds, and measured for one second. The measured values for firefly luciferase activity were corrected by dividing by the value for the Renilla luciferase activity, the internal control. Average values and standard errors were calculated from triplicate samples. […]

ERRγ2, sequence (P62508 whole entry): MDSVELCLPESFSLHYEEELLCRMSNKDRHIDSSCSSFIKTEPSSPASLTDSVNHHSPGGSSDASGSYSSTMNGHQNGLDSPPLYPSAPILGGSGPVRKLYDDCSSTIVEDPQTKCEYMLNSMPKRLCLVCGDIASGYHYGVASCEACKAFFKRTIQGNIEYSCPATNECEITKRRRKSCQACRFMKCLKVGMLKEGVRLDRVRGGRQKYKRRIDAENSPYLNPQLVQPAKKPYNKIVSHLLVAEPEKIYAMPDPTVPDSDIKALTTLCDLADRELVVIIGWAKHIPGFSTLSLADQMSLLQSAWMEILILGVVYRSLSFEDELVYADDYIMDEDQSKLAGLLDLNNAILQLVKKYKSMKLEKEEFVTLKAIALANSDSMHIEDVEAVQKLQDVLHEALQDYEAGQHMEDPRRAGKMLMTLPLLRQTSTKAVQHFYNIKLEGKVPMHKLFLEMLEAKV

4-hydroxytamoxifen [reference compound]
binding to ERRγ2 [1]: capable of binding

B1: ERRγ3: novel ERRγ isoform, nuclear receptor protein of 396 amino acids (SEQ ID NO: 2) lacking part of the DNA binding domain (protein, listed as Homo sapiens)
chain: MSNKDRHIDSSCSSFIKTEPSSPASLTDSVNHHSPGGSSDASGSYSSTMNGHQNGLDSPPLYPSAPILGGSGPVRKLYDDCSSTIVEDPQTKCEYMLNSMPKRLCLVCGDIASGYHYGVASCEACKAFFKRTIQGVRLDRVRGGRQKYKRRIDAENSPYLNPQLAQPAKKPYNKIVSHLLVAEPEKIYAMPDPTVPDSDIKALTTLCDLADRELVVIIGWAKHIPGFSTLSLADQMSLLQSAWMEILILGVVYRSLSFEDELVYADDYIMDEDQSKLAGLLDLNNAILQLVKKYKSMKLEKEEFVTLKAIALANSDSMHIEDVEAVQKLQDVLHEALQDYEAGQHMEDPRRAGKMLMTLPLLRQTSTKAVQHFYNIKLEGKVPMHKLFLEMLEAKV
modifying effect on the transcriptional stimulation activity of VDR [2]: did not show a significant modifying effect
